Measured values from PMC3531872 (Chemical research in toxicology, 2011).
Like-named read-outs stand apart in the source and are kept apart here.

What was measured:
[1] = biological target: T1, Recombinant human P450 1A1 (Homo sapiens, UniProt P04798); test: N- and C-oxidation by recombinant human P450 1A1; type: in vitro ADME
T1 sequence (P04798 1-512): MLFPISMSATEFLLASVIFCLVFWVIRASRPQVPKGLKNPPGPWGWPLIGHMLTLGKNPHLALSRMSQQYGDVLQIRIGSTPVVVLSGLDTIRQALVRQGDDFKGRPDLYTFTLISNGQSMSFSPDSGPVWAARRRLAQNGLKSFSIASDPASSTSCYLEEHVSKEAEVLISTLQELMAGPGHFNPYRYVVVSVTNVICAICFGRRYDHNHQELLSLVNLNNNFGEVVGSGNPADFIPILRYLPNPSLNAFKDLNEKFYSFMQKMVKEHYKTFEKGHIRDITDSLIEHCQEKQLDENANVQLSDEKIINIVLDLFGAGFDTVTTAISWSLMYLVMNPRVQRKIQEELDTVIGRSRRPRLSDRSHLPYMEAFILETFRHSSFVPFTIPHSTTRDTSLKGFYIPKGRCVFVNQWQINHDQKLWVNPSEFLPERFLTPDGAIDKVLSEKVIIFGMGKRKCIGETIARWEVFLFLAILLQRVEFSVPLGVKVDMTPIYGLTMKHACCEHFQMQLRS

[2] = biological target: T2, Recombinant human P450 1B1 (Homo sapiens, UniProt Q16678); test: N- and C-oxidation by recombinant human P450 1B1; type: in vitro ADME
T2 sequence (Q16678 1-543): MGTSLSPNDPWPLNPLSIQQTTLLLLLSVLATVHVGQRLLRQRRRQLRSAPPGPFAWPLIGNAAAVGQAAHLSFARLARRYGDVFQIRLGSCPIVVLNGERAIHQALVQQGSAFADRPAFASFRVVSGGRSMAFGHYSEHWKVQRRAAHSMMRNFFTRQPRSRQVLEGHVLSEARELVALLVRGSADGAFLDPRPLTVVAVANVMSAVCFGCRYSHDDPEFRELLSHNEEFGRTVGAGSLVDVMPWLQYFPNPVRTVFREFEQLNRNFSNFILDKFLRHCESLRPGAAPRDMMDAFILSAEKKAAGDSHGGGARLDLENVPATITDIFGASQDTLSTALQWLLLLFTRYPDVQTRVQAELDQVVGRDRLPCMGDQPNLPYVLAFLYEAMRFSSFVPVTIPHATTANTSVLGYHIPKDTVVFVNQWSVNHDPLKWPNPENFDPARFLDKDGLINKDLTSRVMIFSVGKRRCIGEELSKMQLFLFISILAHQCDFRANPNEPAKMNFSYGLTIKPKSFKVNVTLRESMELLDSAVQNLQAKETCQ

[3] = Plasma clearance of 14C radioactivity in mice; type: in vivo, female C57BL/6J mice
liver DNA = details: male C57BL/6 mice; 24 h post-treatment; 5 mg/kg; cited from earlier work
rat liver DNA = details: 24 h following oral dosing with MeIQx (10 mg/kg); cited from earlier work
[4] = system: liver, pancreas and colorectal DNA; test: In vivo DNA binding
[5] = N- and C-oxidation with mouse liver microsomes; type: in vitro ADME, female C57BL/6J mice; details: female, C57BL/6J, 200 μM, pH 7.6
[6] = N- and C-oxidation with human liver microsomes; type: in vitro ADME; details: 200 μM, pH 7.6
[7] = system: liver, pancreas and colorectal DNA; details: female, C57BL/6J, mouse, in vivo
mouse liver DNA = details: in vivo
[8] = system: S. typhimurium tester strain TA98; details: cited from earlier work
[9] = system: S. typhimurium strain YG1024; details: cited from earlier work

## Cc1cnc2ccc3c(nc(N)n3C)c2n1 [MeIQx, 2-Amino-3,8-dimethylimidazo[4,5-f]quinoxaline]
[1]; recombinant human P450 1A1
  N-oxidation by P450 1A1 (in words): low to not detectable
[2]; recombinant human P450 1B1
  N-oxidation by P450 1B1 (in words): low to not detectable
[3]; gavage, 14C-MeIgQx 9.68 mg/kg or 14C-MeIQx 2.13 mg/kg
  radioactivity cleared from plasma within 48 h: greater than 95%
[3]; gavage, 14C-MeIgQx 9.68 mg/kg or 14C-MeIQx 2.13 mg/kg, time points 4, 24, 48 h
  time of peak plasma levels in radioactivity: 4 h
Liver DNA
  [14C]-MeIQx bound to liver DNA: about 20 adducts per 10^8 nucleotides
Rat liver DNA
  dA-N^6-MeIQx adduct level relative to dG-C8-MeIQx: ~ 5%
  dG-N^2-MeIQx adduct level relative to dG-C8-MeIQx: 30 - 50%
[4]; Time 4 h
  Covalent Binding Index, colon: 113 ±119 (μ mol/mol dNp)/(mmol carcinogen/kg bw)
  Covalent Binding Index, liver: 27.7 ± 8.3 (μ mol/mol dNp)/(mmol carcinogen/kg bw)
  Covalent Binding Index, pancreas: 0.8 ± 0.2 (μ mol/mol dNp)/(mmol carcinogen/kg bw)
[4]; Time 24 h
  Covalent Binding Index, colon: 10.4 ± 11.9 (μ mol/mol dNp)/(mmol carcinogen/kg bw)
  Covalent Binding Index, liver: 11.5 ± 7.7 (μ mol/mol dNp)/(mmol carcinogen/kg bw)
  Covalent Binding Index, pancreas: 0.2 ± 0.1 (μ mol/mol dNp)/(mmol carcinogen/kg bw)
[4]; Time 48 h
  Covalent Binding Index, colon: 2.1 ± 0.9 (μ mol/mol dNp)/(mmol carcinogen/kg bw)
  Covalent Binding Index, liver: 20.5 ± 8.4 (μ mol/mol dNp)/(mmol carcinogen/kg bw)
  Covalent Binding Index, pancreas: 0.1 ± 0.1 (μ mol/mol dNp)/(mmol carcinogen/kg bw)
[4]; colorectal DNA, time points 4, 24, 48 h
  time of highest level of 14C isotope in colorectal DNA: 4 h
[4]; liver DNA, T 48 h vs 4 h
  14C-isotope associated with liver DNA at 48 h, relative to 4 h: up to 74%
[4]; liver, 24 h post treatment, 2.13 mg/kg by gavage
  total [14C]-MeIQx-DNA adduct formation, based upon AMS measurements: 11.4 ± 7.6 adducts per 10^8 nucleotides
[4]; liver, T4 and 24 h, range over both HAAs
  CBI in liver at T4 and 24 h: 7 - 28
[4]; pancreas DNA, T 48 h vs 4 h
  14C-isotope associated with pancreas DNA at 48 h, relative to 4 h: ≤ 25%

## Cc1cnc2cc3nc(N)n(C)c3cc2n1 [MeIgQx, 2-Amino-1,7-dimethylimidazo[4,5-g]quinoxaline]
[5]
  Estimated C-oxidation rate, HO-MeIg Qx formation: 0.5 ± 0.2 nmol/min/mg microsomal protein
  Estimated N-oxidation rate, HONH-MeIg Qx formation: 0.3 ± 0.1 nmol/min/mg microsomal protein
[6]
  Estimated C-oxidation rate, HO-MeIg Qx formation: 0.1 ± 0.01 nmol/min/mg microsomal protein
  Estimated N-oxidation rate, HONH-MeIg Qx formation: 0.4 ± 0.02 nmol/min/mg microsomal protein
  rate of N-oxidation: 0.4 nmol/min/mg protein
[1]; human, 200 μM, pH 7.6
  Estimated C-oxidation rate, HO-MeIg Qx formation: 6.9 ± 2.4 nmol/min/100 pmol P450
  Estimated N-oxidation rate, HONH-MeIg Qx formation: 14.1 ± 4.9 nmol/min/100 pmol P450
[1]; human, recombinant enzyme, 200 μM, pH 7.6
  rate of MeIgQx N-oxidation by P450 1A1 relative to P450 1A2: ~ 3 fold
[2]; human, 200 μM, pH 7.6
  Estimated C-oxidation rate, HO-MeIg Qx formation: 2.5 ± 0.3 nmol/min/100 pmol P450
  Estimated N-oxidation rate, HONH-MeIg Qx formation: 3.9 ± 0.6 nmol/min/100 pmol P450
[3]; female, C57BL/6J, mouse, in vivo, 48 h
  radioactivity cleared from plasma within 48 h: greater than 95%
[7]
  CBI in liver at T4 and 24 h: 7 - 28
  time of highest level of 14C isotope in colorectal DNA: 24 h
[7]; 4 h
  Covalent Binding Index, colon: 12.0 ± 6.5 (μ mol/mol dNp)/(mmol carcinogen/kg bw)
  Covalent Binding Index, liver: 21.7 ± 8.6 (μ mol/mol dNp)/(mmol carcinogen/kg bw)
  Covalent Binding Index, pancreas: 2.4 ± 2.4 (μ mol/mol dNp)/(mmol carcinogen/kg bw)
[7]; 24 h
  14C-isotope associated with liver DNA at 24 h, relative to 4 h: 33%
  14C-isotope associated with pancreas DNA at 24 h, relative to 4 h: 44%
  Covalent Binding Index, colon: 138 ±114 (μ mol/mol dNp)/(mmol carcinogen/kg bw)
  Covalent Binding Index, liver: 7.0 ± 3.2 (μ mol/mol dNp)/(mmol carcinogen/kg bw)
  Covalent Binding Index, pancreas: 1.1 ± 0.6 (μ mol/mol dNp)/(mmol carcinogen/kg bw)
[7]; 48 h
  14C-isotope associated with liver DNA at 48 h, relative to 4 h: 27%
  14C-isotope associated with pancreas DNA at 48 h, relative to 4 h: 17%
  Covalent Binding Index, colon: 28.7 ± 18.5 (μ mol/mol dNp)/(mmol carcinogen/kg bw)
  Covalent Binding Index, liver: 5.8 ± 0.6 (μ mol/mol dNp)/(mmol carcinogen/kg bw)
  Covalent Binding Index, pancreas: 0.2 ± 0.2 (μ mol/mol dNp)/(mmol carcinogen/kg bw)
Mouse liver DNA
  potential dA adduct of MeIgQx ([M+H]+ at m/z 463.2): no peaks were detected above background level
  putative dG-C8-MeIgQx adduct, MS^2 or MS^3 scan stages: not detected
[8]
  potency in the Ames reversion assay, fold lower than MeIQx: about 4,000 fold
[9]
  genotoxic potency in YG1024 relative to TA98, fold greater: 16 fold
  mutagenic potency, fold weaker than PhIP: about 10 fold

## Cn1c(N)nc2ncc(-c3ccccc3)cc21 [PhIP, 2-amino-1-methyl-6-phenylimidazo[4,5-b]pyridine, reference compound]
[9]; S. typhimurium YG1024
  mutagenic potency: 3,015 rev/μg
